Patent US7160901B2, “Substituted indolinones, preparation thereof and their use as pharmaceutical compositions” (Boehringer Ingelheim Pharma GmbH & Co. KG, priority 2000, dated 2007)

system: Leiomyosarcoma tumour cell line SK-UT-1B; experiment: Test 1: inhibition of the proliferation of cultivated human tumour cells (14C-thymidine incorporation), SK-UT-1B; type: cell-based; settings: Homo sapiens, Skut1B; in vitro Test 1; SK-UT-1B cells; 48 hours' incubation, then 14C-thymidine for a further 24 hours; IC50 of inhibition of incorporated 14C-thymidine; read-out: Inhibition of SKUT-1B proliferation
Source text: Inhibition of the Proliferation of Cultivated Human Tumour Cells
Cells of the Leiomyosarcoma tumour cell line SK-UT-1B or non-small-cell lung tumour cell line NCI-H460 (obtained from the American Type Culture Collection (ATCC)) were cultivated in Minimum Essential Medium with non-essential amino acids (Gibco), supplemented with sodium pyruvate (1 mMol), glutamine (2 mMol) and 10% foetal calf serum (Gibco) or RPMI1640 Medium (Gibco) and 10% foetal calf serum (Gibco) and harvested in the logarithmic growth phase. Then the SK-UT-1B cells were placed in Cytostar® multi-well plates (Amersham) at a density of 4000 cells per well or 3000 cells per well for NCI-H460 cells and incubated overnight in an incubator. Various concentrations of the compounds (dissolved in DMSO; final concentration: 0.1%) were added to the cells. After 48 hours' incubation, ^14C-thymidine (Amersham) was added to each well and incubation was continued for a further 24 hours. The quantity of ^14C-thymidine which was incorporated into the tumour cells in the presence of the inhibitor and which represents the number of cells in the S phase was measured in a Wallace 1450 Microbeta Liquid Scintillation Counter. IC50 values for the inhibition of the proliferation (=inhibition of incorporated ^14C-thymidine) were calculated, correcting for the background radiation. All the measurements were done twice.
The following Table contains the results obtained with the in vitro Test 1 (++ denotes <0.01 μM, + denotes 0.01–1.0 μM): […]

SMILES	IC50 [nM]
CS(=O)(=O)Nc1ccc2c(c1)/C(=C(/Nc1ccc(CN3CCCCC3)cc1)c1ccccc1)C(=O)N2 [Example 98, (Z)-3-[1-(4-piperidinomethyl-phenylamino)-1-phenyl-methylidene]-5-methylsulphonylamino-2-indolinone]	10 to 1000
CS(=O)(=O)Nc1ccc2c(c1)/C(=C(/Nc1ccc(CN3CCCC3)cc1)c1ccccc1)C(=O)N2 [Example 145, (Z)-3-{1-[4-(pyrrolidin-1-ylmethyl)-phenylamino]-1-phenyl-methylidene}-5-methylsulphonylamino-2-indolinone]	10 to 1000

Second part, the molecule after the results:

IC50 [nM]	SMILES
10 to 1000	O=C1Nc2ccc(NS(=O)(=O)c3ccccc3)cc2/C1=C(/Nc1ccc(C(=O)NCc2ccccc2)cc1)c1ccccc1 [Example 158, (Z)-3-{1-[4-(benzylaminocarbonyl)-phenylamino]-1-phenyl-methylidene}-5-phenylsulphonylamino-2-indolinone]
10 to 1000	CC(=O)N(CC(=O)N(C)C)c1ccc(N/C(=C2\C(=O)Nc3ccc(NS(=O)(=O)c4ccccc4)cc32)c2ccccc2)cc1 [Example 164, (Z)-3-{1-[4-(N-dimethylaminocarbonylmethyl-N-acetyl-amino)-phenylamino]-1-phenyl-methylidene}-5-phenylsulphonylamino-2-indolinone]
10 to 1000	CN(C)CCN(c1ccc(N/C(=C2\C(=O)Nc3ccc(N(C)S(=O)(=O)c4ccccc4)cc32)c2ccccc2)cc1)S(C)(=O)=O [Example 207, (Z)-3-{1-[4-(N-(2-dimethylamino-ethyl)-N-methylsulphonyl-amino)-phenylamino)-1-phenyl-methylidene}-5-(N-methyl-N-phenylsulphonyl-amino)-2-indolinone]

system: not given; experiment: not given; settings: not given

SMILES	melting point [°C]
CC(=O)N(CCN)c1ccc(N/C(=C2\C(=O)Nc3ccc(NS(=O)(=O)c4ccccc4)cc32)c2ccccc2)cc1 [Example 1, (Z)-3-{1-[4-(N-acetyl-N-(2-aminoethyl)-amino)-phenylamino]-1-phenyl-methylidene}-5-phenylsulphonylamino-2-indolinone]	216
CS(=O)(=O)Nc1ccc2c(c1)/C(=C(/Nc1ccc(CN3CCCCC3)cc1)c1ccccc1)C(=O)N2 [Example 98, (Z)-3-[1-(4-piperidinomethyl-phenylamino)-1-phenyl-methylidene]-5-methylsulphonylamino-2-indolinone]	266
CCOC(=O)Cc1ccc(N/C(=C2\C(=O)Nc3ccc(NS(=O)(=O)c4ccccc4)cc32)c2ccccc2)cc1 [Example 152, (Z)-3-[1-(4-ethoxycarbonylmethyl-phenylamino)-1-phenyl-methylidene]-5-phenylsulphonylamino-2-indolinone]	248 to 249
O=C(O)Cc1ccc(N/C(=C2\C(=O)Nc3ccc(NS(=O)(=O)c4ccccc4)cc32)c2ccccc2)cc1 [Example 153, (Z)-3-[1-(4-carboxymethyl-phenylamino)-1-phenyl-methylidene]-5-phenylsulphonylamino-2-indolinone]	305 to 306
O=C(Cc1ccc(N/C(=C2\C(=O)Nc3ccc(NS(=O)(=O)c4ccccc4)cc32)c2ccccc2)cc1)NCc1ccccc1 [Example 154, (Z)-3-{1-[4-(benzylaminocarbonylmethyl)-phenylamino]-1-phenyl-methylidene}-5-phenylsulphonylamino-2-indolinone]	219 to 220
CS(=O)(=O)N(CC(N)=O)c1ccc(N/C(=C2\C(=O)Nc3ccc(NS(=O)(=O)c4ccccc4)cc32)c2ccccc2)cc1 [Example 155, (Z)-3-{1-[4-(N-(aminocarbonylmethyl)-N-methylsulphonyl-amino)-phenylamino]-1-phenyl-methylidene}-5-phenylsulphonylamino-2-indolinone]	216 to 217

Next, values leading:

melting point [°C]	SMILES
217	CC(=O)N(CCN(C)C)c1ccc(N/C(=C2\C(=O)Nc3ccc(N(C)S(=O)(=O)c4ccccc4)cc32)c2ccccc2)cc1 [Example 208, (Z)-3-{1-[4-(N-(2-dimethylamino-ethyl)-N-acetyl-amino)-phenylamino)-1-phenyl-methylidene}-5-(N-methyl-N-phenylsulphonyl-amino)-2-indolinone]
160	CN(C(=O)CN1CCCCC1)c1ccc(N/C(=C2\C(=O)Nc3ccc(N(C)S(=O)(=O)c4ccccc4)cc32)c2ccccc2)cc1 [Example 209, (Z)-3-{1-[4-(N-methyl-N-piperidinomethylcarbonyl-amino)-phenylamino)-1-phenyl-methylidene}-5-(N-methyl-N-phenylsulphonyl-amino)-2-indolinone]
226	CN(C)Cc1cccc(N/C(=C2\C(=O)Nc3ccc(N(C)S(=O)(=O)c4ccccc4)cc32)c2ccccc2)c1 [Example 210, (Z)-3-[1-(3-dimethylaminomethyl-phenylamino)-1-phenyl-methylidene]-5-(N-methyl-N-phenylsulphonyl-amino)-2-indolinone]
